Earlier results, collected in US6426091B1, “Sustained-release theophylline tablet” (Nikken Chemicals Co., Ltd., priority 1997, dated 2002).

Cn1c(=O)c2[nH]cnc2n(C)c1=O [Theophylline]
biological half-life (adults): about 6 hours
concentration in the blood above which serious side effects (cardiovascular system, central nervous system) sometimes appear (background art): exceeds 20 μg/ml
